IC50 and GI50 data for 22 compounds are collected here from patent US8846704B2, “Thiopyrimidine-based compounds and uses thereof” (YM Biosciences Austraila Pty Ltd, priority 2007, dated 2014).

The target in test [1] is T1, human JAK2 (Homo sapiens, UniProt O60674).
T1 construct: The kinase domain of human JAK2 was amplified; GST (N); made in house; host or cells: Sf9 insect cells (baculovirus)
The test can be described thus: Alphascreen tyrosine kinase enzyme assay, JAK2 kinase domain. The class given is biochemical. The conditions noted are these: read-out: JAK2 IC50_nM. In a few lines: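 JAK2 kinase domain expressed in baculovirus/Sf9 and glutathione-affinity purified. Compounds (final […]) pre-incubated 20 min with enzyme in 10 mM HEPES pH 7.5, MgCl2, NaCl, vanadate, 0.1% Tween 20.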
On the technique in general: Alpha assays give light when donor and acceptor beads are brought close together.

The target in test [2] is T2, BaF3 TELJAK2 cells (BafT_J2) (Homo sapiens, UniProt O60674).
T2 construct: fused on or other part: TEL (ETV6) N-terminal part, coding nucleotides 1-487, serves as the oligomerising partner; It is fused through a Sal I site to the JAK2 kinase domain and expressed from pTRE2 in BaF3 cells bearing pTET-off; P41212 (Transcription factor ETV6)
The test can be described thus: Cellular screening, BaF3 TEL:JAK2 cells, Alamar Blue. Type of test: cell-based. The note with it: 40 hr, read-out: BafT_J2 IC50_nM. In a few lines: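 Tet-off BaF3 cells carrying a TEL (nt 1-487)–JAK2 kinase-domain fusion, grown factor-independently in DMEM with 10% Tet-approved FBS without WEHI 3B medium. Compounds were diluted to 20 μM in screening plates, and cells (50,000–200,000 cell/mL at 1.1×) were incubated 40 hr at 37 °C, 5% CO2. Alamar Blue was then added for 4-6 hours; read at 544 nm.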
(In general: The colour change of resazurin is a common sign of viable cells or microbes.)

Test [3] concerns BaF3 wild-type cells. The test can be described thus: Cellular screening, BaF3 wild-type cells, Alamar Blue. Type of test: cell-based. The note with it: Mus musculus, 40 hr, read-out: BAF3wt IC50_nM. The procedure, abridged:
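Cells were cultured in DMEM with 10% FCS and 10% WEHI 3B conditioned medium, and suspensions were prepared at 1.1× final (50,000–200,000 cells/mL). Compounds from 20 μM dilution plates were added at 10× final and incubated for 40 hr at 37° C, 5% CO2. Alamar Blue was then added for 4–6 hours and read at 544 nm.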

Where only a bound is given, the exact number is not on record here.

T2 sequence (O60674 whole entry, change not shown, the tested form may be a part): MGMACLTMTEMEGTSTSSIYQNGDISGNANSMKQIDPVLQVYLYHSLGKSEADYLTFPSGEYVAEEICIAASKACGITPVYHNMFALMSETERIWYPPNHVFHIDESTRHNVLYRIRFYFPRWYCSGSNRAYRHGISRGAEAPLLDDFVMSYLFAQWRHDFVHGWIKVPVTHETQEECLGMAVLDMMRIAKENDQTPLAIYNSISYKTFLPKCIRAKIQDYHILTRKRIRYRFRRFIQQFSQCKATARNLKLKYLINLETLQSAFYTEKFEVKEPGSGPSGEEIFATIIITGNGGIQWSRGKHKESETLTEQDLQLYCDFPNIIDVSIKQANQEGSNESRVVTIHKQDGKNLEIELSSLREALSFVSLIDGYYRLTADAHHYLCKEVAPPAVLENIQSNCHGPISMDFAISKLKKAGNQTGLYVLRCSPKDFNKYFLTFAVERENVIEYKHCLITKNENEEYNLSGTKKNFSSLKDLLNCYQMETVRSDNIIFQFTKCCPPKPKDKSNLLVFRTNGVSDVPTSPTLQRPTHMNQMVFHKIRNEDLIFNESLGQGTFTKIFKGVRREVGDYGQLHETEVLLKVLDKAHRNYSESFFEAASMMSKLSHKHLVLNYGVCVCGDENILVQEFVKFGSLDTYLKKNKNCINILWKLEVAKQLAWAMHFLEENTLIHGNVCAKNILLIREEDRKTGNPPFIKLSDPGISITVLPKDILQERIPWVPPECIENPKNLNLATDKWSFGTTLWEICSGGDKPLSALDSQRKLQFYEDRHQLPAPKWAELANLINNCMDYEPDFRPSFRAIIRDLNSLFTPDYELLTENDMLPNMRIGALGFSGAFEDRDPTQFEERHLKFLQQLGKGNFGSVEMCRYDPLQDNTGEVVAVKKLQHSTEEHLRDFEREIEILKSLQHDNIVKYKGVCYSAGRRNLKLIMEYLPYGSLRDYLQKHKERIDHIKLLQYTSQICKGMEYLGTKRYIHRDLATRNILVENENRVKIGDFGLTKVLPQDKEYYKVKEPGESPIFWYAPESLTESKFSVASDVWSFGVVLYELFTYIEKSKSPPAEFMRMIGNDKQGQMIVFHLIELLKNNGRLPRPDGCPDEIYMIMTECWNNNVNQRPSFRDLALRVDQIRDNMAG
T1 sequence (O60674 849-1124 limits assumed): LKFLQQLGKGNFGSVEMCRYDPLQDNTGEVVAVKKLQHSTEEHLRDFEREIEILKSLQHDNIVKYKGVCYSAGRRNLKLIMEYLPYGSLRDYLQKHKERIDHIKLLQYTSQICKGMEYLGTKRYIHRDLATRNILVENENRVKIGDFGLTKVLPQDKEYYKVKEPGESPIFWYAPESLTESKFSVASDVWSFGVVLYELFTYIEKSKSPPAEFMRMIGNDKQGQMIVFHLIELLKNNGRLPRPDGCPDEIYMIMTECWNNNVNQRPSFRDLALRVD

On to `C=CC(=O)Nc1cccc(Nc2nccc(SC)n2)c1` [Compound 7, N-(3-(4-(methylthio)pyrimidin-2-ylao)phenyl)acrylamide], for which the IC50 is greater than 1000 nM in test [1] and less than 20 µM in test [3]. For the same compound, in test [2], the GI50 was less than 20 µM.
With `Cc1cnc(Nc2ccc(N3CCOCC3)cc2)nc1Sc1ccc(N2C(=O)COCC2=O)cc1` [Compound 190, 4-(4-(5-methyl-2-(4-morpholinophenylao)pyrimidin-4-ylthio)phenyl)morpholine-3,5-dione], the figures for the IC50 in test [1] and in test [3] were less than 500 nM and greater than 20 µM, respectively. Further, the GI50 in test [2] is greater than 20 µM.
In the case of `Cc1cnc(Nc2ccc(O)cc2)nc1Sc1ccc(N)cc1` [Compound 191, 4-(4-(4-aophenylthio)-5-methylpyrimidin-2-ylao)phenol], the figures for the IC50 in test [1] and in test [3] were greater than 1000 nM and less than 5 µM, respectively. In test [2], the GI50 is less than 5 µM.
As to `Cc1cnc(Nc2cccc(S)c2)nc1Sc1ccc(NC(=O)CCl)cc1` [Compound 195, 2-chloro-N-(4-(2-(3-mercaptophenylao)-5-methylpyrimidin-4-ylthio)phenyl)acetamide], the values for the IC50 in test [1] and in test [3] were greater than 1000 nM and greater than 20 µM, respectively. In addition, the GI50 in test [2] was greater than 20 µM.
In the case of `Cc1cnc(Nc2ccc(N3CCOCC3)cc2)nc1Sc1ccc(N2CCSCC2=O)cc1` [Compound 197, 4-(4-(5-methyl-2-(4-morpholinophenylao)pyrimidin-4-ylthio)phenyl)thiomorpholin-3-one], the IC50 in test [1] is greater than 1000 nM; in test [3] it was greater than 20 µM. The GI50 in test [2] was greater than 20 µM.
Turning to `N#Cc1c(N)ncn1Cc1cccc(Sc2ccnc(Nc3ccc(N4CCOCC4)cc3)n2)c1` [Compound 199, 4-ao-1-(3-(2-(4-morpholinophenylao)pyrimidin-4-ylthio)benzyl)-1H-imiazole-5-carbonitrile], the IC50 is less than 1000 nM in test [1] and less than 20 µM in test [3]. For the same compound, the GI50 in test [2] is less than 5 µM.
Taken in the same sequence, the figures for `N#Cc1ncn(Cc2ccc(Sc3ccnc(Nc4ccc(N5CCOCC5)cc4)n3)cc2)c1N` [Compound 202, 5-ao-1-(4-(2-(4-morpholinophenylao)pyrimidin-4-ylthio)benzyl)-1H-imidazole-4-carbonitrile] were less than 1000 nM, less than 20 µM and less than 5 µM.
In the same order, the values of `N#Cc1c(N)ncn1Cc1ccc(Sc2ccnc(Nc3ccc(N4CCOCC4)cc3)n2)cc1` [Compound 203, 4-ao-1-(4-(2-(4-morpholinophenylao)pyrimidin-4-ylthio)benzyl)-1H-imidazole-5-carbonitrile] are less than 1000 nM, less than 1 µM and less than 1 µM.
Taken in the same sequence, the figures for `c1cc(Sc2ccc(Cn3cncn3)cc2)nc(Nc2ccc(N3CCOCC3)cc2)n1` [Compound 204, 4-(4-((1H-1,2,4-triazol-1-yl)methyl)phenylthio)-N-(4-morpholinophenyl)pyrimidin-2-ae] were less than 1000 nM, less than 20 µM and less than 5 µM.
As to `NC(=O)c1ccc(Sc2ccnc(Nc3ccc(N4CCOCC4)cc3)n2)cc1` [Compound 207, 4-(2-(4-morpholinophenylao)pyrimidin-4-ylthio)benzamide], the IC50 in test [1] was greater than 1000 nM. In addition, the GI50 in test [2] was greater than 20 µM.
Take `N#CCc1ccc(Sc2ccnc(Nc3ccc(N4CCOCC4)cc3)n2)cc1` [Compound 210, 2-(4-(2-(4-morpholinophenylao)pyrimidin-4-ylthio)phenyl)acetonitrile]: the values for the IC50 in test [1] and in test [3] were greater than 1000 nM and greater than 20 µM, respectively. In test [2], the GI50 was greater than 20 µM.
As to `Cc1cnc(Nc2ccc(N3CCOCC3)cc2)nc1Sc1cccc(CO)c1` [Compound 212, (3-(5-methyl-2-(4-morpholinophenylao)pyrimidin-4-ylthio)phenyl)methanol], the IC50 in test [1] is less than 500 nM; in test [3], greater than 20 µM. The GI50 in test [2] is greater than 20 µM.
Take `CON(C)C(=O)c1ccc(Sc2nc(Nc3ccc(N4CCOCC4)cc3)ncc2C)cc1` [Compound 218, N-methoxy-N-methyl-4-(5-methyl-2-(4-morpholinophenylao)pyrimidin-4-ylthio)benzamide]: the IC50 is greater than 1000 nM in test [1] and greater than 20 µM in test [3]. Also, the GI50 in test [2] was greater than 20 µM.
Consider `Cc1cnc(Nc2ccc(N3CCOCC3)cc2)nc1Sc1ccc(C=O)cc1` [Compound 219, 4-(5-methyl-2-(4-morpholinophenylao)pyrimidin-4-ylthio)benzaldehyde], for which the IC50 in test [1] was greater than 1000 nM; in test [3] it was less than 5 µM. The GI50 in test [2] is less than 5 µM.
Turning to `Cc1cnc(Nc2ccc(N3CCOCC3)cc2)nc1Sc1ccc(CO)cc1` [Compound 220, (4-(5-methyl-2-(4-morpholinophenylao)pyrimidin-4-ylthio)phenyl)methanol], the IC50 in test [1] is less than 500 nM; in test [3], less than 5 µM. Moreover, the GI50 in test [2] is less than 5 µM.
With `Cc1cnc(Nc2ccc(N3CCOCC3)cc2)nc1Sc1ccc(CC#N)cc1` [Compound 222, 2-(4-(5-methyl-2-(4-morpholinophenylao)pyrimidin-4-ylthio)phenyl)acetonitrile], the IC50 in test [1] was greater than 1000 nM; in test [3], greater than 20 µM. Also, the GI50 in test [2] is greater than 20 µM.
For the compound `Cc1cnc(Nc2ccc(N3CCOCC3)cc2)nc1Sc1ccc(C(C#N)N2CCOCC2)cc1` (stereo not shown) [Compound 223, 2-(4-(5-methyl-2-(4-morpholinophenylao)pyrimidin-4-ylthio)phenyl)-2-morpholinoacetonitrile], the figures for the IC50 in test [1] and in test [3] were greater than 1000 nM and less than 5 µM, respectively. For the same compound, in test [2], the GI50 is less than 5 µM.
On to `Cc1cnc(Nc2ccc(N3CCOCC3)cc2)nc1Sc1ccc(C(=O)N2CCCC2)cc1` [Compound 224, (4-(5-methyl-2-(4-morpholinophenylao)pyrimidin-4-ylthio)phenyl)(pyrrolidin-1-yl)methanone], for which the IC50 in test [1] was less than 1000 nM; in test [3] it was less than 20 µM. In test [2], the GI50 is greater than 20 µM.
As for `Cc1cnc(Nc2ccc(N3CCOCC3)cc2)nc1Sc1ccc(C(C#N)N2CCN(C)CC2)cc1` (stereo not shown) [Compound 225, 2-(4-(5-methyl-2-(4-morpholinophenylao)pyrimidin-4-ylthio)phenyl)-2-(4-methylpiperazin-1-yl)acetonitrile], the IC50 in test [1] is greater than 1000 nM; in test [3] it was less than 5 µM. Moreover, in test [2], the GI50 is less than 5 µM.
Regarding `Cc1cnc(Nc2cccc(NS(C)(=O)=O)c2)nc1Sc1ccc(CO)cc1` [Compound 226, N-(3-(4-(4-(hydroxymethyl)phenylthio)-5-methylpyrimidin-2-ylao)phenyl)methanesulfonamide], the IC50 in test [1] was greater than 1000 nM. Also, the GI50 in test [2] was less than 5 µM.
For `Cc1cnc(Nc2ccc(N3CCOCC3)cc2)nc1Sc1ccc(NC2CCOC2=O)cc1` (stereo not shown) [Compound 228, 3-(4-(5-methyl-2-(4-morpholinophenylao)pyrimidin-4-ylthio)phenylao)dihydrofuran-2(3H)-one], the IC50 in test [1] is greater than 1000 nM; in test [3], greater than 20 µM. The GI50 in test [2] is greater than 20 µM.
As for `Cc1cnc(Nc2ccc(N3CCOCC3)cc2)nc1Sc1ccc(NC(=O)CO)cc1` [Compound 229, 2-hydroxy-N-(4-(5-methyl-2-(4-morpholinophenylao)pyrimidin-4-ylthio)phenyl)acetamide], the IC50 is less than 1000 nM in test [1] and less than 20 µM in test [3]. For the same compound, the GI50 in test [2] is less than 20 µM.
